{"source": "ChEMBL document CHEMBL6134851", "about": "“Comparative Study on Covalent and Noncovalent Endogenous Albumin-Binding β-Glucuronidase-Activated SN38 Prodrugs for Antitumor Efficacy” (J Med Chem, 2025)", "key": {"[1]": {"test": "Toxicity in female BALB/cA nude mouse assessed as animal fatality at 38 mg/kg, iv administered once a week for 35 days", "type": "organism-based", "details": "in vivo, 840 h, time 35 day"}, "[2]": {"test": "Toxicity in female BALB/cA nude mouse assessed as fibrotic changes in spleen at 38 mg/kg, iv administered once a week for 35 days by H and E staining based analysis", "type": "organism-based", "details": "in vivo, 840 h, time 35 day"}, "[3]": {"test": "Toxicity in female BALB/cA nude mouse assessed as mortality at 38 mg/kg, iv administered twice per week measured after 107 days", "type": "organism-based", "details": "in vivo, 2568 h, time 107 day"}, "BXPC-3 [4]": {"system": "BXPC-3", "test": "Antitumor activity against human BXPC-3 cells xenografted in female BALB/cA nude mouse model assessed as suppression of tumor growth by measuring relative tumor proliferation rate at 38 mg/kg, iv measured after 18 days", "type": "functional, organism-based", "details": "time 18.0 day"}, "[5]": {"test": "Clearance in female BALB/c mouse at 38 mg/kg measured up to 168 hrs by HPLC analysis", "type": "ADME, organism-based", "details": "in vivo"}, "[6]": {"test": "Toxicity in female BALB/cA nude mouse assessed as appearance of fibrosis in heart at 38 mg/kg, iv measured after 24 hrs by H and E staining based analysis", "type": "organism-based", "details": "in vivo"}, "HCT-116 [7]": {"system": "HCT-116", "test": "Antitumor activity against human HCT-116 cells xenografted in female BALB/cA nude mouse model assessed as relative tumor proliferation rate at 38 mg/kg, iv administered twice per week measured after 107 days", "type": "functional, organism-based", "details": "time 107.0 day"}, "[8]": {"test": "Toxicity in female BALB/cA nude mouse assessed as effect on body weight loss at 38 mg/kg, iv administered twice per week measured after 107 days", "type": "organism-based", "details": "in vivo, 2568 h, time 107 day"}, "[9]": {"test": "Prodrug release in female BALB/c nude mouse tumor assessed as (S)-4,11-diethyl-4,9-dihydroxy-1,12-dihydro-14H-pyrano[3',4':6,7]indolizino[1,2-b]quinoline-3,14(4H)-dione accumulation at 38 mg/kg measured after 6 hrs by HPLC analysis", "type": "ADME, organism-based, Neoplasm", "details": "in vivo"}, "[10]": {"test": "Volume of distribution in female BALB/c mouse at 38 mg/kg measured up to 168 hrs by HPLC analysis", "type": "ADME, organism-based", "details": "in vivo"}, "[11]": {"test": "Toxicity in female BALB/cA nude mouse assessed as appearance of inflammatory lesions in tumor at 38 mg/kg, iv administered once a week for 35 days by H and E staining based analysis", "type": "organism-based", "details": "in vivo, 840 h, time 35 day"}, "[12]": {"test": "Toxicity in female BALB/cA nude mouse assessed as fibrotic changes in lung at 38 mg/kg, iv administered once a week for 35 days by H and E staining based analysis", "type": "organism-based", "details": "in vivo, 840 h, time 35 day"}, "[13]": {"test": "Toxicity in female BALB/cA nude mouse assessed as fibrotic changes in heart at 38 mg/kg, iv administered once a week for 35 days by H and E staining based analysis", "type": "organism-based", "details": "in vivo, 840 h, time 35 day"}, "[14]": {"test": "Toxicity in female BALB/cA nude mouse assessed as appearance of inflammatory lesions in liver at 38 mg/kg, iv administered once a week for 35 days by H and E staining based analysis", "type": "organism-based", "details": "in vivo, 840 h, time 35 day"}, "[15]": {"test": "AUC (0 to t) in female BALB/c mouse at 38 mg/kg measured up to 168 hrs by HPLC analysis", "type": "ADME, organism-based", "details": "in vivo"}, "[16]": {"test": "Toxicity in female BALB/cA nude mouse assessed as appearance of inflammatory lesions in kidney at 38 mg/kg, iv administered once a week for 35 days by H and E staining based analysis", "type": "organism-based", "details": "in vivo, 840 h, time 35 day"}, "[17]": {"test": "Toxicity in female BALB/cA nude mouse assessed as necrosis in tumor tissue at 38 mg/kg, iv measured after 24 hrs by H and E staining based analysis", "type": "organism-based", "details": "in vivo"}, "[18]": {"test": "Toxicity in female BALB/cA nude mouse assessed as appearance of inflammatory lesions in heart at 38 mg/kg, iv administered once a week for 35 days by H and E staining based analysis", "type": "organism-based", "details": "in vivo, 840 h, time 35 day"}, "HCT-116 [19]": {"system": "HCT-116", "test": "Antitumor activity against human HCT-116 cells xenografted in female BALB/cA nude mouse model assessed as relative tumor proliferation rate at 38 mg/kg, iv administered twice per week measured after 24 days relative to control", "type": "functional", "details": "time 24 day"}, "[20]": {"test": "Toxicity in female BALB/cA nude mouse assessed as appearance of inflammatory lesions in lung at 38 mg/kg, iv administered once a week for 35 days by H and E staining based analysis", "type": "organism-based", "details": "in vivo, 840 h, time 35 day"}, "[21]": {"test": "Half life in female BALB/c mouse at 25 mg/kg measured up to 120 hrs by HPLC analysis", "type": "ADME, organism-based", "details": "in vivo"}, "[22]": {"test": "Toxicity in female BALB/cA nude mouse assessed as fibrotic changes in liver at 25 mg/kg, iv administered once a week for 35 days by H and E staining based analysis", "type": "organism-based", "details": "in vivo, 840 h, time 35 day"}, "HCT-116 [23]": {"system": "HCT-116", "test": "Antitumor activity against human HCT-116 cells xenografted in female BALB/cA nude mouse model assessed as tumor shrinkage at 25 mg/kg, iv administered twice per week measured after 65 days relative to control", "type": "functional", "details": "time 65 day"}, "[24]": {"test": "Toxicity in female BALB/cA nude mouse assessed as inflammatory response in liver at 25 mg/kg, iv measured after 24 hrs by H and E staining based analysis", "type": "organism-based", "details": "in vivo"}, "[25]": {"test": "Toxicity in female BALB/cA nude mouse assessed as appearance of inflammatory lesions in spleen at 25 mg/kg, iv administered once a week for 35 days by H and E staining based analysis", "type": "organism-based", "details": "in vivo, 840 h, time 35 day"}, "BXPC-3 [26]": {"system": "BXPC-3", "test": "Antitumor activity against human BXPC-3 cells xenografted in female BALB/cA nude mouse model assessed as suppression of tumor growth by measuring relative tumor proliferation rate at 25 mg/kg, iv measured after 24 days relative to control", "type": "functional", "details": "time 24 day"}, "[27]": {"test": "Toxicity in female BALB/cA nude mouse assessed as fibrotic changes in tumor at 25 mg/kg, iv administered once a week for 35 days by H and E staining based analysis", "type": "organism-based", "details": "in vivo, 840 h, time 35 day"}, "HCT-116 [28]": {"system": "HCT-116", "test": "Antitumor activity against human HCT-116 cells xenografted in female BALB/cA nude mouse model assessed as tumor shrinkage at 25 mg/kg, iv administered twice per week measured after 100 days relative to control", "type": "functional", "details": "time 100 day"}, "[29]": {"test": "Toxicity in female BALB/cA nude mouse assessed as fibrotic changes in lung at 25 mg/kg, iv administered once a week for 35 days by H and E staining based analysis", "type": "organism-based", "details": "in vivo, 840 h, time 35 day"}, "[30]": {"test": "Toxicity in female BALB/cA nude mouse assessed as appearance of inflammatory lesions in liver at 25 mg/kg, iv administered once a week for 35 days by H and E staining based analysis", "type": "organism-based", "details": "in vivo, 840 h, time 35 day"}, "[31]": {"test": "Toxicity in female BALB/cA nude mouse assessed as effect on body weight loss at 25 mg/kg, iv administered once a week for 35 days", "type": "organism-based", "details": "in vivo, 840 h, time 35 day"}, "[32]": {"test": "Toxicity in female BALB/cA nude mouse assessed as appearance of inflammatory lesions in kidney at 25 mg/kg, iv administered once a week for 35 days by H and E staining based analysis", "type": "organism-based", "details": "in vivo, 840 h, time 35 day"}, "[33]": {"test": "Toxicity in female BALB/cA nude mouse assessed as appearance of inflammatory lesions in tumor at 25 mg/kg, iv administered once a week for 35 days by H and E staining based analysis", "type": "organism-based", "details": "in vivo, 840 h, time 35 day"}, "[34]": {"test": "Toxicity in female BALB/cA nude mouse assessed as effect on body weight loss at 25 mg/kg, iv administered twice per week measured after 107 days", "type": "organism-based", "details": "in vivo, 2568 h, time 107 day"}, "[35]": {"test": "Toxicity in female BALB/cA nude mouse assessed as fibrotic changes in kidney at 25 mg/kg, iv administered once a week for 35 days by H and E staining based analysis", "type": "organism-based", "details": "in vivo, 840 h, time 35 day"}}, "note": "The source made the active and inactive calls. The rule behind the calls is not given here.", "data": [{"smiles": "CCc1c2c(nc3ccc(OCc4ccc(O[C@@H]5O[C@H](C(=O)O)[C@@H](O)[C@H](O)[C@H]5O)c(NC(=O)CCNC(=O)COCCOCCNC(=O)COCCOCCNC(=O)CC[C@H](NC(=O)CCCCCCCCCCCCCCCCC(=O)O)C(=O)O)c4)cc13)-c1cc3c(c(=O)n1C2)COC(=O)[C@]3(O)CC", "values": [{"measurement": "Activity", "setting": "[1]", "value": "Non-toxic"}, {"measurement": "Activity", "setting": "[2]", "value": "Non-toxic"}, {"measurement": "Activity", "setting": "[3]", "value": "Non-toxic"}, {"measurement": "Activity", "setting": "BXPC-3 [4]", "value": "inactive"}, {"measurement": "clearance", "setting": "[5]", "value": 0.0452, "unit": "L/h/kg"}, {"measurement": "Activity", "setting": "[6]", "value": "Toxic"}, {"measurement": "Activity", "setting": "HCT-116 [7]", "value": "inactive"}, {"measurement": "Activity", "setting": "[8]", "value": "Toxic"}, {"measurement": "Drug metabolism", "setting": "[9]", "value": 0.376, "unit": "% ID/g"}, {"measurement": "Vd", "setting": "[10]", "value": 0.24, "unit": "L/kg"}, {"measurement": "Activity", "setting": "[11]", "value": "Non-toxic"}, {"measurement": "Activity", "setting": "[12]", "value": "Non-toxic"}, {"measurement": "Activity", "setting": "[13]", "value": "Non-toxic"}, {"measurement": "Activity", "setting": "[14]", "value": "Non-toxic"}, {"measurement": "AUC(0-t) at 168 h", "setting": "[15]", "value": 837, "unit": "µg·h/mL"}, {"measurement": "Activity", "setting": "[16]", "value": "Non-toxic"}, {"measurement": "Activity", "setting": "[17]", "value": "Toxic"}, {"measurement": "Activity", "setting": "[18]", "value": "Non-toxic"}, {"measurement": "Activity", "setting": "HCT-116 [19]", "value": 10.59, "unit": "%"}, {"measurement": "Activity", "setting": "[20]", "value": "Non-toxic"}]}, {"smiles": "CCc1c2c(nc3ccc(OCc4ccc(O[C@@H]5O[C@H](C(=O)O)[C@@H](O)[C@H](O)[C@H]5O)c(NC(=O)CCNC(=O)CCCCCN5C(=O)C=CC5=O)c4)cc13)-c1cc3c(c(=O)n1C2)COC(=O)[C@]3(O)CC", "values": [{"measurement": "t1/2", "setting": "[21]", "value": 52.31, "unit": "h"}, {"measurement": "Activity", "setting": "[22]", "value": "Non-toxic"}, {"measurement": "Activity", "setting": "HCT-116 [23]", "value": 100, "unit": "%"}, {"measurement": "Activity", "setting": "[24]", "value": "Toxic"}, {"measurement": "Activity", "setting": "[25]", "value": "Non-toxic"}, {"measurement": "Activity", "setting": "BXPC-3 [26]", "value": 8.97, "unit": "%"}, {"measurement": "Activity", "setting": "[27]", "value": "Non-toxic"}, {"measurement": "Activity", "setting": "HCT-116 [28]", "value": 100, "unit": "%"}, {"measurement": "Activity", "setting": "[29]", "value": "Non-toxic"}, {"measurement": "Activity", "setting": "[30]", "value": "Non-toxic"}, {"measurement": "Activity", "setting": "[31]", "value": "Non-toxic"}, {"measurement": "Activity", "setting": "[32]", "value": "Non-toxic"}, {"measurement": "Activity", "setting": "[33]", "value": "Non-toxic"}, {"measurement": "Activity", "setting": "[34]", "value": "Non-toxic"}, {"measurement": "Activity", "setting": "[35]", "value": "Non-toxic"}]}]}
